Results on 39 compounds are retold here after patent publication US6900219B2, “ABCA-1 elevating compounds” (CV Therapeutics, Inc., priority 2002, dated 2005).

For this assay, the system named is ABCA-1 gene. Kind of assay: compounds tested and found to elevate cellular expression of the ABCA-1 gene (Examples 1-6; test not named). The format is cell-based. As for the experimental part:
Activity testing is conducted as described in those patents and patent applications referenced above, and in the Examples below, and by methods apparent to one skilled in the art.
Consider `O=C(NCCc1ccccc1)c1ccc2ccccc2c1` [2-naphthyl-N-(2-phenylethyl)carboxamide], for which the “cellular expression of the ABCA-1 gene” value is reported as “elevate cellular expression of the ABCA-1 gene”.

`Cc1ccc(NC(=O)Nc2ccc(Cl)c(Cl)c2)cc1` [N-(3,4-dichlorophenyl)[(4-methylphenyl)amino]carboxamide]: the “cellular expression of the ABCA-1 gene” value is on record as “elevate cellular expression of the ABCA-1 gene”.

Turning to `O=C(Nc1nc2c(Cl)cccc2s1)c1cc2ccccc2s1` [benzo[b]thiophen-2-yl-N-(4-chlorobenzothiazol-2-yl)carboxamide], the “cellular expression of the ABCA-1 gene” value is “elevate cellular expression of the ABCA-1 gene”.

On to `O=[N+]([O-])c1ccc(COc2ccc(C3SCCS3)cc2)cc1` [4-(1,3-dithiolan-2-yl)-1-[(4-nitrophenyl)methoxy]benzene], for which the “cellular expression of the ABCA-1 gene” value is “elevate cellular expression of the ABCA-1 gene”.

Take `CCc1ccc(C(=O)N(CCc2ccccn2)Cc2ccccc2[N+](=O)[O-])cc1` [(4-ethylphenyl)-N-[(2-nitrophenyl)methyl]-N-(2-(2-pyridyl)ethyl)carboxamide]: the “cellular expression of the ABCA-1 gene” value is “elevate cellular expression of the ABCA-1 gene”.

Consider `CCOC(=O)C1=C(NCCc2ccccc2)CCN(C(=O)c2ccc([N+](=O)[O-])cc2)C1` [ethyl 1-[(4-nitrophenyl)carbonyl]-4-[(2-phenylethyl)amino]-1,2,5,6-tetrahydropyridine-3-carboxylate], for which the “cellular expression of the ABCA-1 gene” value is recorded as “elevate cellular expression of the ABCA-1 gene”.

For the compound `Cc1ccc(NC(=O)c2ccc3ccccc3c2)cc1C` [N-(3,4-dimethylphenyl)-2-naphthylcarboxamide], the “cellular expression of the ABCA-1 gene” value is “elevate cellular expression of the ABCA-1 gene”.

As for `O=C(Nc1ncc(-c2ccccc2)s1)c1ccc(OC(F)(F)F)cc1` [N-(5-phenyl(1,3-thiazol-2-yl))[4-(trifluoromethoxy)phenyl]carboxamide], the “cellular expression of the ABCA-1 gene” value is on record as “elevate cellular expression of the ABCA-1 gene”.

As for `Cn1cccc1CN(CCc1ccccn1)C(=O)c1ccc(Cl)cc1` [(4-chlorophenyl)-N-[(1-methylpyrrol-2-yl)methyl]-N-(2-(2-pyridyl)ethyl)carboxamide], the “cellular expression of the ABCA-1 gene” value was “elevate cellular expression of the ABCA-1 gene”.

On to `Cc1cccc(NC(=O)c2sc3ccccc3c2Cl)c1` [(3-chlorobenzo[b]thiophen-2-yl)-N-(3-methylphenyl)carboxamide], for which the “cellular expression of the ABCA-1 gene” value is recorded as “elevate cellular expression of the ABCA-1 gene”.

On to `O=C(NC1=NC(C(=O)O)CS1)c1ccc2c(c1)OCO2` (stereo not drawn) [2-(2H-benzo[3,4-d]1,3-dioxolan-5-ylcarbonylamino)-1,3-thiazoline-4-carboxylic acid], for which the “cellular expression of the ABCA-1 gene” value is “elevate cellular expression of the ABCA-1 gene”.

As to `O=C(NC1=NC(C(=O)O)CS1)c1ccccc1C(F)(F)F` (stereo not drawn) [2-[(2-trifluoromethylphenyl)carbonylamino]-1,3-thiazoline-4-carboxylic acid], the “cellular expression of the ABCA-1 gene” value is reported as “elevate cellular expression of the ABCA-1 gene”.

With `O=C(Nc1nc2c(Cl)cccc2s1)c1cccc(F)c1` [N-(4-chlorobenzothiazol-2-yl)(3-fluorophenyl)carboxamide], the “cellular expression of the ABCA-1 gene” value is on record as “elevate cellular expression of the ABCA-1 gene”.

Regarding `O=C(Nc1cccc(Cl)c1)c1ccc2ccccc2c1` [N-(3-chlorophenyl)-2-naphthylcarboxamide], the “cellular expression of the ABCA-1 gene” value is given as “elevate cellular expression of the ABCA-1 gene”.

`CCn1c2ccccc2c2cc(NC(=O)c3ccc(F)cc3)ccc21` [N-(9-ethylcarbazol-3-yl)(4-fluorophenyl)carboxamide]: the “cellular expression of the ABCA-1 gene” value was “elevate cellular expression of the ABCA-1 gene”.

On to `CNC(=O)C(Sc1nnc(NC(=O)c2ccc(C)cc2)s1)C(C)=O` (stereo not drawn) [N-methyl-2-{5-[(4-methylphenyl)carbonylamino](1,3,4-thiadiazol-2-ylthio)}-3-oxobutanamide], for which the “cellular expression of the ABCA-1 gene” value was “elevate cellular expression of the ABCA-1 gene”.

For the compound `CCC(c1nc2ccccc2c(=O)n1-c1ccc(C)c(C)c1)N(CCOC)C(=O)Nc1ccc(Cl)cc1` (stereo not drawn) [N-{[3-(3,4-dimethylphenyl)-4-oxo(3-hydroquinazolin-2-yl)]propyl}[(4-chlorophenyl)amino]-N-(2-methoxyethyl)carboxamide], the “cellular expression of the ABCA-1 gene” value was “elevate cellular expression of the ABCA-1 gene”.

Turning to `Cc1ccc(-c2csc(-n3ncc(C(=O)NCCc4ccccc4)c3C)n2)cc1` [5-methyl-1-(4-p-tolyl-thiazol-2-yl)-1H-pyrazole-4-carboxylic acid phenethyl-amide], the “cellular expression of the ABCA-1 gene” value is “elevate cellular expression of the ABCA-1 gene”.

For `O=C(Nc1ncc(-c2ccccc2)s1)c1cccc(C(F)(F)F)c1` [N-(5-phenyl(1,3-thiazol-2-yl))[3-(trifluoromethyl)phenyl]carboxamide], the “cellular expression of the ABCA-1 gene” value was “elevate cellular expression of the ABCA-1 gene”.

On to `O=C(Nc1ncc(-c2ccccc2Cl)s1)C1CC1` [N-[5-(2-chlorophenyl)(1,3-thiazol-2-yl)]cyclopropylcarboxamide], for which the “cellular expression of the ABCA-1 gene” value is listed as “elevate cellular expression of the ABCA-1 gene”.

In the case of `CCCn1c(C(CC)N(Cc2ccccc2)C(=O)CC(C)CC(C)(C)C)nc2ccccc2c1=O` (stereo not drawn) [3,5,5-trimethylhexanoic acid benzyl-[1-(4-oxo-3-propyl-3,4-dihydro-quinazolin-2-yl)propyl]-amide], the “cellular expression of the ABCA-1 gene” value is “elevate cellular expression of the ABCA-1 gene”.

As for `N#Cc1ccc(C(=O)NC2=NC(=O)CS2)cc1` [(4-cyanophenyl)-N-(4-oxo(1,3-thiazolin-2-yl))carboxamide], the “cellular expression of the ABCA-1 gene” value was “elevate cellular expression of the ABCA-1 gene”.

Turning to `O=C(Nc1ncc(-c2ccccc2)s1)c1ccc(C(F)(F)F)cc1F` [[2-fluoro-4-(trifluoromethyl)phenyl]-N-(5-phenyl(1,3-thiazol-2-yl))carboxamide], the “cellular expression of the ABCA-1 gene” value is “elevate cellular expression of the ABCA-1 gene”.

Regarding `Cc1c(C(=O)NC(=O)Nc2ccccc2Cl)cnn1-c1ccccc1` [N-{[(2-chlorophenyl)amino]carbonyl}(5-methyl-1-phenylpyrazol-4-yl)carboxamide], the “cellular expression of the ABCA-1 gene” value is on record as “elevate cellular expression of the ABCA-1 gene”.

On to `Cc1cccc(C)c1NC(=O)N(Cc1ccccc1)C(C)c1nc2ccccc2c(=O)n1-c1ccc2ccccc2c1` (stereo not drawn) [[(2,6-dimethylphenyl)amino]-N-[(3-(2-naphthyl)-4-oxo(3-hydroquinazolin-2-yl))ethyl]-N-benzylcarboxamide], for which the “cellular expression of the ABCA-1 gene” value is recorded as “elevate cellular expression of the ABCA-1 gene”.

`CCc1c(C(=O)N2CCN(C(=O)c3ccc(-c4ccccc4)cc3)C(C)C2)cnn1-c1nc(-c2ccc(OC)cc2)cs1` (stereo not drawn) [[4-(biphenyl-4-carbonyl)-3-methyl-piperazin-1-yl]-{5-ethyl-1-[4-(4-methoxy-phenyl)-thiazol-2-yl]-1H-pyrazol-4-yl}-methanone]: the “cellular expression of the ABCA-1 gene” value is “elevate cellular expression of the ABCA-1 gene”.

For `N#Cc1c(NC(=O)c2ccc(Br)o2)sc2ccccc12` [(5-bromo(2-furyl)-N-(3-cyanobenzo[b]thiophen-2-yl)carboxamide], the “cellular expression of the ABCA-1 gene” value is reported as “elevate cellular expression of the ABCA-1 gene”.

Turning to `O=C(Nc1ccc2c(c1)OCOC2)c1sc2ccccc2c1Cl` [N-(2H,4H-benzo[e]1,3-dioxan-7-yl)(3-chlorobenzo[b]thiophen-2-yl)carboxamide], the “cellular expression of the ABCA-1 gene” value is listed as “elevate cellular expression of the ABCA-1 gene”.

Consider `CCc1c(C(=O)N2CCN(C(=O)C(CC)c3ccccc3)C(C)C2)cnn1-c1nc(-c2ccc(Cl)cc2)cs1` (stereo not drawn) [1-(4-{1-[4-(4-chloro-phenyl)-thiazol-2-yl]-5-ethyl-1H-pyrazole-4-carbonyl}-2-methyl-piperazin-1-yl)-2-phenyl-butan-1-one], for which the “cellular expression of the ABCA-1 gene” value is “elevate cellular expression of the ABCA-1 gene”.

Take `O=C(Nc1nc2ccccc2s1)c1cnn(-c2ccccc2)c1C(F)(F)F` [N-benzothiazol-2-yl[1-phenyl-5-(trifluoromethyl)pyrazol-4-yl]carboxamide]: the “cellular expression of the ABCA-1 gene” value is reported as “elevate cellular expression of the ABCA-1 gene”.

As to `Cc1ccc(C(=O)Nc2nc(-c3ccccc3)cs2)cc1C` [(3,4-dimethylphenyl)-N-(4-phenyl(1,3-thiazol-2-yl))carboxamide], the “cellular expression of the ABCA-1 gene” value is “elevate cellular expression of the ABCA-1 gene”.

As to `O=C(Nc1ccc2ccccc2c1)c1sc2ccccc2c1Cl` [(3-chlorobenzo[b]thiophen-2-yl)-N-(2-naphthyl)carboxamide], the “cellular expression of the ABCA-1 gene” value is “elevate cellular expression of the ABCA-1 gene”.

Turning to “N-(4-naphthyl(1,3-thiazol-2-yl))[4-(trifluoromethoxy)phenyl]carboxamide”, the “cellular expression of the ABCA-1 gene” value was “elevate cellular expression of the ABCA-1 gene”.

For the compound `CCc1cc(OC(=O)c2ccco2)n(-c2cccc(Cl)c2)n1` [1-(3-chlorophenyl)-3-ethylpyrazol-5-yl furan-2-carboxylate], the “cellular expression of the ABCA-1 gene” value is recorded as “elevate cellular expression of the ABCA-1 gene”.

`O=C1CSC(NC(=O)c2ccccc2)=N1` [phenyl-N-(4-oxo(1,3-thiazolin-2-yl))carboxamide]: the “cellular expression of the ABCA-1 gene” value is recorded as “elevate cellular expression of the ABCA-1 gene”.

With `N#Cc1cccc(C(=O)Nc2nc3c(Cl)cccc3s2)c1` [N-(4-chlorobenzothiazol-2-yl)(3-cyanophenyl)carboxamide], the “cellular expression of the ABCA-1 gene” value was “elevate cellular expression of the ABCA-1 gene”.

`Nc1ccccc1-c1nc(-c2ccc(Cl)cc2)no1` [2-[3-(4-chlorophenyl)-1,2,4-oxadiazol-5-yl]phenylamine]: the “cellular expression of the ABCA-1 gene” value is “elevate cellular expression of the ABCA-1 gene”.

On to `O=C(Nc1ccc2c(c1)OCCO2)c1ccc([N+](=O)[O-])cc1Cl` [N-(2H,3H-benzo[e]1,4-dioxan-6-yl)(2-chloro-4-nitrophenyl)carboxamide], for which the “cellular expression of the ABCA-1 gene” value is “elevate cellular expression of the ABCA-1 gene”.

Regarding `O=C(NC1=NCCS1)c1ccccc1F` [(2-fluorophenyl)-N-(1,3-thiazolin-2-yl)carboxamide], the “cellular expression of the ABCA-1 gene” value is reported as “elevate cellular expression of the ABCA-1 gene”.
